Format in all cases: cell-based
The subject of data set [1] is colon cancer cell line RKO. The data set can be described thus: Growth profile / viability of RKO colon cancer cells, XTT test. The conditions noted are these: 96 h, Control DMSO = 100%, read-out: percentage of viable cells, RKO. Summed up:
(§1)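 Cells were seeded and grown untreated overnight, then exposed to compounds at a final 5 μM (0.4% v/v DMSO). Untreated and 0.4% DMSO-only cells were the controls. Percent viable cells was measured by XTT 96 h after compound addition.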
Background: Tetrazolium dyes change colour on reduction, which living cells bring about.

Data set [2] deals with colon cancer cell line HT29. The experiment in a line: Growth profile / viability of HT29 colon cancer cells, XTT test. The conditions noted are these: Homo sapiens, HT-29, 96 h, Control DMSO = 100%, read-out: percentage of viable cells, HT29. The method, boiled down: as §1
Data set [3] has as its system colon cancer cell line HCT 116. The data set can be described thus: Growth profile / viability of HCT116 colon cancer cells, XTT test. The conditions noted are these: Homo sapiens, HCT-116, 96 h, Control DMSO = 100%, read-out: percentage of viable cells, HCT116. The method, boiled down:
as §1

The nature of data set [4]: Viability of FS non malignant fibroblastic cells, XTT test. The conditions noted are these: FS cells (non-malignant fibroblastic cell line), Control DMSO = 100%, read-out: percentage of viable cells, FS. Summed up: as §1

Structures are written as SMILES. Read-outs that look alike come from different tables or passages of the source.

With `CC(C)c1ccc(-c2cn3nc(N4CCC(C(=O)N(C)CCc5ccccn5)CC4)sc3n2)cc1` [Compound Z522-0226, 1-[6-(4-isopropylphenyl)imidazo[2,1-b][1,3,4]thiadiazol-2-yl]-N-methyl-N-(2-pyridin-2-ylethyl)piperidine-4-carboxamide], the viability at 5 µM was 72% in data set [1] (first RKO column); 64% in data set [1] (second RKO column); 101% in data set [2] (first HT29 column); 92% in data set [2] (second HT29 column); 80% in data set [3] (first HCT116 column); 80% in data set [3] (second HCT116 column). Moreover, the viability at 96 h, 5 µM in data set [4] (first FS column) was 91%; in data set [4] (second FS column), 99%.

As for `Cc1c(-c2ccc(N3CCOCC3)cc2)nc2sc(N3CCC(C(=O)N4CCN(C)CC4)CC3)nn12` [Compound Z522-0196, 5-methyl-2-{4-[(4-methyl-piperazin-1-yl)-carbonyl]piperidin-1-yl}-6-(4-morpholin-4-ylphenyl)imidazo [2,1-b][1,3,4]-thiadiazole], the viability at 5 µM turned out to be 88% in data set [1] (first RKO column); 93% in data set [1] (second RKO column); 104% in data set [2] (first HT29 column); 101% in data set [2] (second HT29 column); 105% in data set [3] (first HCT116 column); 104% in data set [3] (second HCT116 column). Moreover, the viability at 96 h, 5 µM in data set [4] (first FS column) is 86%; in data set [4] (second FS column), 94%.

Consider `CC(C)c1ccc(-c2cn3nc(N4CCC(C(=O)N(C)CCc5ccncc5)CC4)sc3n2)cc1` [Compound Z522-0228, 1-[6-(4-isopropylphenyl)imidazo[2,1-b][1,3,4]thiadiazol-2-yl]-N-methyl-N-(2-pyridin-4-ylethyl)piperidine-4-carboxamide], for which the viability at 5 µM amounted to 51% in data set [1] (first RKO column); 55% in data set [1] (second RKO column); 58% in data set [2] (first HT29 column); 61% in data set [2] (second HT29 column); 82% in data set [3] (first HCT116 column); 70% in data set [3] (second HCT116 column). The viability at 96 h, 5 µM in data set [4] (first FS column) is 111%; in data set [4] (second FS column), 113%.

As to `Cc1c(-c2ccc(N(C)C)cc2)nc2sc(N3CCC(C(=O)N4CCN(C)CC4)CC3)nn12` [Compound Z522-0179, N,N-dimethyl-4-(5-methyl-2-{4-[(4-methyl-piperazin-1-yl)carbonyl]piperidin-1-yl}imidazo-[2,1-b][1,3,4]-thiadiazol-6-yl)-aniline], the viability at 5 µM in data set [1] (first RKO column) was 109%; in data set [1] (second RKO column) it was 103%; in data set [2] (first HT29 column) it was 103%; in data set [2] (second HT29 column), 100%; in data set [3] (first HCT116 column), 101%; in data set [3] (second HCT116 column), 108%. The figures for the viability at 96 h, 5 µM in data set [4] (first FS column) and in data set [4] (second FS column) were 91% and 117%, respectively.

Consider `CC1CCCN(c2ccc(-c3cn4nc(N5CCC(C(=O)N6CCN(C)CC6)CC5)sc4n3)cc2)C1` (centres unmarked) [Compound Z522-0166, 2-{4-[(4-methylpiperazin-1-yl)carbonyl]-piperidin-1-yl}-6-[4-(3-methyl-piperidin-1-yl)-phenyl]imidazo[2,1-b][1,3,4]-thiadiazole], for which the viability at 5 µM was found to be 6% in data set [1] (first RKO column); 6% in data set [1] (second RKO column); 4% in data set [2] (first HT29 column); 4% in data set [2] (second HT29 column); 30% in data set [3] (first HCT116 column); 23% in data set [3] (second HCT116 column). Besides, the viability at 96 h, 5 µM in data set [4] (first FS column) was 101%; in data set [4] (second FS column), 92%.

Turning to `CN1CCN(C(=O)C2CCN(c3nn4cc(-c5ccc(N6CCN(C)CC6)cc5)nc4s3)CC2)CC1` [Compound Z522-0160, 2-{4-[(4-methylpiperazin-1-yl)carbonyl]-piperidin-1-yl}-6-[4-(4-methyl-piperazin-1-yl)-phenyl]imidazo[2,1-b][1,3,4]-thiadiazole], the viability at 5 µM was 92% in data set [1] (first RKO column); 109% in data set [1] (second RKO column); 117% in data set [2] (first HT29 column); 91% in data set [2] (second HT29 column); 105% in data set [3] (first HCT116 column); 108% in data set [3] (second HCT116 column). In addition, the viability at 96 h, 5 µM in data set [4] (first FS column) worked out at 101%; in data set [4] (second FS column) it was 104%.

As for `CN1CCN(C(=O)C2CCN(c3nn4cc(-c5ccc(-n6cccn6)cc5)nc4s3)CC2)CC1` [Compound Z522-0167, 2-{4-[(4-methyl-piperazin-1-yl)-carbonyl]piperidin-1-yl}-6-[4-(1H-pyrazol-1-yl)-phenyl]imidazo[2,1-b][1,3,4]-thiadiazole], the viability at 5 µM in data set [1] (first RKO column) was 36%; in data set [1] (second RKO column), 47%; in data set [2] (first HT29 column), 87%; in data set [2] (second HT29 column), 86%; in data set [3] (first HCT116 column) it was 94%; in data set [3] (second HCT116 column), 83%. Moreover, the viability at 96 h, 5 µM in data set [4] (first FS column) turned out to be 96%; in data set [4] (second FS column), 92%.

Consider `CN1CCN(C(=O)C2CCN(c3nn4cc(-c5ccc(N6CCSCC6)cc5)nc4s3)CC2)CC1` [Compound Z522-0164, 2-{4-[(4-methylpiperazin-1-yl)carbonyl]-piperidin-1-yl}-6-(4-thiomorpholin-4-ylphenyl)-imidazo[2,1-b]-[1,3,4]thiadiazole], for which the viability at 5 µM was found to be 60% in data set [1] (first RKO column); 63% in data set [1] (second RKO column); 50% in data set [2] (first HT29 column); 42% in data set [2] (second HT29 column); 80% in data set [3] (first HCT116 column); 97% in data set [3] (second HCT116 column). Further, the viability at 96 h, 5 µM stood at 104% in data set [4] (first FS column) and 95% in data set [4] (second FS column).

Turning to `CN1CCN(C(=O)C2CCN(c3nn4cc(-c5ccc(N6CCOCC6)cc5)nc4s3)CC2)CC1` [Compound Z522-0176, 2-{4-[(4-methyl-piperazin-1-yl)-carbonyl]piperidin-1-yl}-6-(4-morpholin-4-yl-phenyl)imidazo[2,1-b][1,3,4]-thiadiazole], the viability at 5 µM in data set [1] (first RKO column) came to 92%; in data set [1] (second RKO column), 89%; in data set [2] (first HT29 column) it was 112%; in data set [2] (second HT29 column), 112%; in data set [3] (first HCT116 column), 109%; in data set [3] (second HCT116 column), 116%. Moreover, the viability at 96 h, 5 µM amounted to 103% in data set [4] (first FS column) and 100% in data set [4] (second FS column).

With `O=C(C1CCN(c2nn3cc(-c4ccc(Cl)cc4)nc3s2)CC1)N1CCCC(CN2CCOCC2)C1` (centres unmarked) [Compound Z522-0214, 6-(4-chlorophenyl)-2-(4-{[3-(morpholin-4-ylmethyl)piperidin-1-yl]carbonyl}piperidin-1-yl)imidazo[2,1-b][1,3,4]thiadiazole], the viability at 5 µM amounted to 24% in data set [1] (first RKO column); 23% in data set [1] (second RKO column); 53% in data set [2] (first HT29 column); 57% in data set [2] (second HT29 column); 70% in data set [3] (first HCT116 column); 71% in data set [3] (second HCT116 column). Further, the figures for the viability at 96 h, 5 µM in data set [4] (first FS column) and in data set [4] (second FS column) were 104% and 90%, respectively.

Regarding `Cc1c(-c2ccc(N3CCCCCC3)cc2)nc2sc(N3CCC(C(=O)N4CCN(C)CC4)CC3)nn12` [Compound Z522-0185, 6-(4-azepan-1-yl-phenyl)-5-methyl-2-{4-[(4-methyl-piperazin-1-yl)carbonyl]piperidin-1-yl}imidazo-[2,1-b][1,3,4]-thiadiazole], the viability at 5 µM turned out to be 14% in data set [1] (first RKO column); 15% in data set [1] (second RKO column); 19% in data set [2] (first HT29 column); 11% in data set [2] (second HT29 column); 40% in data set [3] (first HCT116 column); 42% in data set [3] (second HCT116 column). Besides, the viability at 96 h, 5 µM in data set [4] (first FS column) was 92%; in data set [4] (second FS column), 94%.

For the compound `CC(C)c1ccc(-c2cn3nc(N4CCC(C(=O)N5CCCN(c6ncccn6)CC5)CC4)sc3n2)cc1` [Compound Z522-0242, 6-(4-isopropylphenyl)-2-{4-[(4-pyrimidin-2-yl-1,4-diazepan-1-yl)carbonyl]piperidin-1-yl}imidazo[2,1-b][1,3,4]thiadiazole], the viability at 5 µM came to 55% in data set [1] (first RKO column); 50% in data set [1] (second RKO column); 72% in data set [2] (first HT29 column); 66% in data set [2] (second HT29 column); 88% in data set [3] (first HCT116 column); 86% in data set [3] (second HCT116 column). In addition, the viability at 96 h, 5 µM in data set [4] (first FS column) was 89%; in data set [4] (second FS column), 123%.

Turning to `CN(CCc1ccncc1)C(=O)C1CCN(c2nn3cc(-c4ccc(Cl)cc4)nc3s2)CC1` [Compound Z522-0205, 1-[6-(4-chlorophenyl)imidazo[2,1-b][1,3,4]thiadiazol-2-yl]-N-methyl-N-(2-pyridin-4-ylethyl) piperidine-4-carboxamide], the viability at 5 µM in data set [1] (first RKO column) stood at 52%; in data set [1] (second RKO column), 62%; in data set [2] (first HT29 column) it was 88%; in data set [2] (second HT29 column), 85%; in data set [3] (first HCT116 column), 78%; in data set [3] (second HCT116 column), 71%. Moreover, the viability at 96 h, 5 µM amounted to 88% in data set [4] (first FS column) and 111% in data set [4] (second FS column).
